Values after ≈ are worked out from the molar mass of the structure shown.
How the values were obtained:
[1] = oral dosing; cited from earlier work
[2] = Plasma stability, rat plasma (HPLC-MS); assay type: in vitro ADME; details: 10 μM, 37° C.
Protocol: (§1) Plasma stability determination of the test compounds in rat, dog, cynomolgus monkey and human plasma is performed using HPLC-MS. For rat, incubations are carried out in 96-well polypropylene plates in 5 aliquots of 70 μL each (one for each time point). […] Five time points are analyzed (0, 15, 120, 480 and 1440 min). For dog, monkey and human, test compounds (2 μM, final solvent concentration 1%) were also incubated at 37° C. and analyzed at five time points (0, 10, 30, 60 and 120 min). All incubations are performed in duplicates. The samples are analyzed by HPLC-MS. The percentage of parent compound remaining after incubation in plasma is determined.

[3] = Plasma stability, dog plasma (HPLC-MS); assay type: in vitro ADME; details: 2 μM, 37° C.
Protocol: as §1

[4] = Plasma stability, cynomolgus monkey plasma (HPLC-MS); assay type: in vitro ADME; details: 2 μM, 37° C., 0 min
Protocol: as §1, with “For dog, monkey and human, test compounds (2 μM, final solvent concentration 1%) were also incubated at 37° C. and analyzed at five time points (0, 10, 30, 60 and 120 min).” left out

[5] = Plasma stability, human plasma (HPLC-MS); assay type: in vitro ADME; details: 2 μM, 37° C.
Protocol: as §1, with “For dog, monkey and human, test compounds (2 μM, final solvent concentration 1%) were also incubated at 37° C. and analyzed at five time points (0, 10, 30, 60 and 120 min).” left out

[6] = Liver S9 fraction stability, cynomolgus monkey; assay type: in vitro ADME; details: 2 μM, 1.0 mg/ml S9 protein, 37° C.
Protocol: (§2) Liver S9 fraction stability determination of the test compounds in dog, cynomolgus monkey and human is performed using HPLC-MS. Test compound (2 μM, 0.1% DMSO, 1% Methanol final concentration) was assessed for stability in a 50 μl phosphate buffer containing 1.0 mg/ml S9 protein from each of the three species and 5 mM D-saccharic acid-1, 4-lactone. Samples were incubated at 37° C. for 60 minutes and the % compound remaining was assessed.

[7] = Liver S9 fraction stability, human; assay type: in vitro ADME; details: 2 μM, 1.0 mg/ml S9 protein, 37° C.
Protocol: as §2

[8] = Clinical observations for dogs in pharmacokinetic studies; assay type: in vivo, Beagle dogs; details: right leg test article
Protocol: Weight monitoring was done every week.
The dose formulation (concentration—400 mg base equivalents/ml in sesame oil+1% benzyl alcohol, unless otherwise specified) was administered via deep intramuscularly (unless otherwise specified). The injection vehicle was also dosed via deep intramuscular route (unless otherwise specified) on contralateral site of each animal at study initiation. The animals were sedated with Propofol at 6 mg/kg via IV administration. Following sedation hair was carefully removed from around the injection site and the area gently cleaned. Care will be taken to avoid irritating skin during shaving and cleaning the injection site. Then dogs will be dosed with deep IM administration. At least 2.5 cm depth from the surface into the central aspect of the quadriceps or biceps femoris muscle, by angling the needle toward the femur. If the needle hits the femur, simply draws back slightly and then inject. The dose volume will be determined by the animals' body weight collected on the morning of dosing day. For repeated administration, the injection sites may be rotated to minimize tissue injury.

[9] = Equilibrium solubility in water (Table 10); details: for solubility thermodynamic: water, 40 °C, thermodynamic from solid
[10] = Solubility determination in oil (cottonseed oil, sesame oil), HPLC; details: Heating Temp. 60 °C, Obs. Temp. 25 °C
Protocol: A known amount of test substance (˜40 mg) was weighed into the vial, 100 μL of oil was added and heated to 60° C. and then system was slurried to reach equilibrium. […] Then the clear solution was placed at room temperature (25° C.) for 24 h to confirm whether there was solid precipitation. Extra oil was added into the vial once compound precipitated out and then the system was re-equilibrated at 1000 rpm at room temperature (25° C.). Final concentration was determined by HPLC method as described below in Table 6a and 6b.

[11] = Rat pharmacokinetic studies, intramuscular administration; assay type: in vivo, male Sprague Dawley Rats; details: rat IM 0.80 mg/kg, saline
Protocol: The purpose of this study is to determine the pharmacokinetics of test compounds in plasma, following intramuscular administration to male Sprague Dawley Rats (n=3, unless otherwise specified).
The dose formulation of 400 mg base equivalents/ml in sesame oil+1% benzyl alcohol (unless otherwise specified) was administered by intramuscular injection. The dose volume was determined by the animals' body weight determined on the morning of dosing day.
Each collected blood sample was centrifuged for 4 minutes at 4° C. and 10000 rpm for plasma collection. Plasma was collected and transferred into a pre-labeled PP tube in dry ice at each time point and precipitated immediately using ACN at a ratio of 1:4 (plasma:ACN). Centrifuged again (10 minutes, 12000 rpm) and obtain the supernatant.
LC-MS/MS methods for the quantitative determination of test compound in biological matrix were developed. […] The sample analysis was performed concurrently with a set of calibration standards and two sets of QC samples using the LC-MS/MS method.
Plasma concentration versus time data was analyzed by non-compartmental approaches using the Phoenix WinNonlin 6.3 software program. Cmax, Tmax, T1/2, AUC(0-t), AUC(0-inf), MRT(0-t), MRT(0-inf) and graphs of plasma concentration versus time profile were prepared.

| Structure (SMILES) | % remaining at time point in minutes, 0 min [2] [%] | % remaining at time point in minutes, 15 min [2] [%] | % remaining at time point in minutes, 1440 min [2] [%] | % remaining at time point in minutes, 0 min [3] [%] | % remaining at time point in minutes, 0 min [4] [%] | % remaining at time point in minutes, 0 min [5] [%] | % remaining at time point in minutes, 480 min [2] [%] | further results |
| --- | --- | --- | --- | --- | --- | --- | --- | --- |
| Oc1ccc2c3c1O[C@H]1[C@H](O)CC[C@@]4(O)[C@@H](C2)N(CC2CC2)CC[C@]314 [6-β-naltrexol] | – | – | – | – | – | – | – | mean elimination half-life [1]: thirteen |
| CCCCCCCCCCCC(=O)OCN1C(=O)CCc2ccc(OCCCCN3CCN(c4cccc(Cl)c4Cl)CC3)cc21 [Aripiprazole Lauroxil, reference compound] | 100 | 84 | 46 | 100 | 100 | 100 | – | % remaining at time point in minutes, 120 min ([5]; 120 min): 80% |
| C=C1CC[C@@]2(O)C3Cc4ccc(OC(=O)OCCCCCCCCCCCC)c5c4[C@@]2(CCN3CC2CC2)[C@H]1O5 [Compound 6, (4aS,7aS,12bS)-3-(cyclopropylmethyl)-4a-hydroxy-7-methylene-2,3,4,4a,5,6,7,7a-octahydro-1H-4,12-methanobenzofuro[3,2-e]isoquinolin-9-yl dodecyl carbonate] | 100 | – | 1.6 | 100 | 100 | 100 | 4 | % remaining at time point in minutes, 120 min [2]: 7.6%; Liver S9 Fraction Stability, % remaining at 60 minutes, Monkey [6]: 0%; Liver S9 Fraction Stability, % remaining at 60 minutes, Human [7]: 5.3% |
| C=C1CC[C@@]2(O)C3Cc4ccc(OC(=O)CCCCCCC/C=C/CCCCCCCC)c5c4[C@@]2(CCN3CC2CC2)[C@H]1O5 [Compound 15, (4aS,7aS,12bS)-3-(cyclopropylmethyl)-4a-hydroxy-7-methylene-2,3,4,4a,5,6,7,7a-octahydro-1H-4,12-methanobenzofuro[3,2-e]isoquinolin-9-yl (E)-octadec-9-enoate] | 100 | 72 | 35 | 100 | 100 | 100 | 52 | % remaining at time point in minutes, 1440 min ([5]; 1440 min): 109.6%; Clinical observations, R-TA ([8]; 48 mg/kg, Day 35, dogs D1001, D1002, D1003): rashes subside on the leg; Clinical observations, R-TA ([8]; Day 7, dogs D1501, D1502, D1503, dose not given): Swelling 8 * 4 cm |
| C=C1CC[C@@]2(O)C3Cc4ccc(OC(=O)CCCCCCCCCCCCCCC)c5c4[C@@]2(CCN3CC2CC2)[C@H]1O5 [Compound 56, (4aS,7aS,12bS)-3-(cyclopropylmethyl)-4a-hydroxy-7-methylene-2,3,4,4a,5,6,7,7a-octahydro-1H-4,12-methanobenzofuro[3,2-e]isoquinolin-9-yl palmitate, reference compound] | 100 | – | – | – | – | – | – | solubility thermodynamic [9]: 6.6 µg/mL (≈ 11.4 µM) |
| C=C1CC[C@@]2(O)C3Cc4ccc(OC(=O)CCCCCCCCCCC)c5c4[C@@]2(CCN3CC2CC2)[C@H]1O5 [Compound 59, (4aS,7aS,12bS)-3-(cyclopropylmethyl)-4a-hydroxy-7-methylene-2,3,4,4a,5,6,7,7a-octahydro-1H-4,12-methanobenzofuro[3,2-e]isoquinolin-9-yl dodecanoate, reference compound] | 100 | 5.9 | 0 | – | – | – | 0.2 | % remaining at time point in minutes, 120 min [2]: 0.7%; Approximate Solubility in Excipient: Cottonseed oil [10]: >414000 µg/mL; Approximate Solubility in Excipient: Sesame oil [10]: >393300 µg/mL; Equilibrium solubility Water ([9]; Heating Temp. 40 °C, Obs. Temp. 40 °C): <1 µg/mL |
| C=C1CC[C@@]2(O)[C@H]3Cc4ccc(O)c5c4[C@@]2(CCN3CC2CC2)[C@H]1O5.Cl [Nalmefene HCl-IR] | – | – | – | – | – | – | – | AUC0-inf (ng · h/mL) nalmefene [11]: 66.0 ng·h/mL; Terminal Half-life t1/2 (hour) nalmefene [11]: 0.87 h |
| C=C1CC[C@@]2(O)[C@H]3Cc4ccc(O)c5c4[C@@]2(CCN3CC2CC2)[C@H]1O5 [nalmefene, 17-cyclopropylmethyl-4,5α-epoxy-6-methylenemorphinan-3,14-diol] | – | – | – | – | – | – | – | solubility thermodynamic [9]: 25 µg/mL (≈ 73.7 µM) |

Source: patent US10544154B2, “Opioid receptor antagonist prodrugs” (Nirsum Laboratories, Inc., priority 2017, dated 2020)
